The structures appear in SMILES notation. Values joined by “and” are separate entries in the source; they are usually repeats but may differ in a detail not shown here. Identical values can stand only once.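 Step 1: Grow cells in 96-well plates. Step 2: Expose to compound for 48 hours at 5 concentrations. Step 3: Interpolate endpoints linearly; if unreached, use highest concentration. At the GI50, growth is halved. Definition used: TGI = concentration required for complete inhibition of growth.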

GI50 and TGI data for 10 molecules are collected here from PubChem BioAssay (NCI).

Some test systems named below: M14 melanoma; HL-60(TB) leukemia; SF-539 CNS; UACC-257 melanoma; NCI-H23 lung; SK-MEL-2 melanoma; LOX IMVI melanoma; PC-3 prostate; BT-549 breast; K-562 leukemia.
Common to all, as to test: growth of human tumour cells (NCI), 48 h

With `CCSCC1CC(O)(c2ccccc2)C(c2ccccc2)C(c2ccc(Cl)cc2)O1` (centres undefined), the GI50 in the experiment with M14 melanoma is 1.81 µM; with HL-60(TB) leukemia, 4.08 µM; with SF-539 CNS, 1.76 µM; with UACC-257 melanoma, 1.83 µM; with NCI-H23 lung, 1.88 µM; with SK-MEL-2 melanoma, 1.73 µM. Besides, the GI50 with LOX IMVI melanoma is 1.65 µM; in the experiment on PC-3 prostate it was 1.48 µM; with BT-549 breast, 1.76 µM; in the experiment on K-562 leukemia it was 1.89 µM. In addition, the TGI with M14 melanoma was 3.4 µM; with HL-60(TB) leukemia it was 8.28 µM; in the experiment on SF-539 CNS, 3.56 µM; in the experiment on UACC-257 melanoma, 3.95 µM; in the experiment with NCI-H23 lung, 3.94 µM; with SK-MEL-2 melanoma it was 3.5 µM. For the same molecule, the TGI with LOX IMVI melanoma worked out at 3.05 µM; in the experiment on PC-3 prostate it was 4.86 µM; with BT-549 breast, 3.63 µM; in the experiment on K-562 leukemia, 8.37 µM.
`CC[C@]1(O)CC(OC2CC(N(C)C)C(O)C(C)O2)c2c(cc3c(c2O)C(=O)c2c(O)cccc2C3=O)[C@@H]1C(=O)OC` (some centres undefined): the TGI in the experiment with M14 melanoma was found to be 2.07 µM; in the experiment with SF-539 CNS, 2.51 µM; with UACC-257 melanoma it was 1.88 µM; in the experiment on NCI-H23 lung, 2.47 µM; with SK-MEL-2 melanoma, 1.82 µM; with LOX IMVI melanoma, 0.635 µM. In addition, the figures for the TGI in the experiment on PC-3 prostate, with BT-549 breast and in the experiment with K-562 leukemia were 1.8 µM, 4.97 µM and 0.982 µM, respectively.
With `C[C@@H]1COCCN1c1cc(C2([S@](C)(=N)=O)CC2)nc(-c2ccnc3[nH]ccc23)n1`, the GI50 with M14 melanoma was 1.69 µM and 2.38 µM; in the experiment on HL-60(TB) leukemia, 1.95 µM and 3.39 µM; in the experiment on SF-539 CNS, 1.19 µM and 1.99 µM; in the experiment with UACC-257 melanoma it was 14 µM and > 10 µM; in the experiment with NCI-H23 lung, 1.74 µM and 1.7 µM; in the experiment on SK-MEL-2 melanoma it was 3.74 µM and 1.56 µM. Besides, the GI50 is 0.903 µM and 2.75 µM in the experiment on LOX IMVI melanoma; 12.2 µM and > 10 µM in the experiment with PC-3 prostate; 1.83 µM and 2.92 µM in the experiment on BT-549 breast; 3.76 µM and 2.96 µM with K-562 leukemia. Besides, the TGI was 9.96 µM and > 10 µM in the experiment on M14 melanoma; 12.8 µM and > 10 µM with HL-60(TB) leukemia; 8.03 µM and > 10 µM with SF-539 CNS; 74 µM and > 10 µM with UACC-257 melanoma; 34.3 µM and > 10 µM in the experiment on NCI-H23 lung; 26.2 µM and > 10 µM in the experiment with SK-MEL-2 melanoma. For the same molecule, the TGI in the experiment with LOX IMVI melanoma was 12.7 µM and > 10 µM; in the experiment with PC-3 prostate, over 100 µM; in the experiment on BT-549 breast it was 27.7 µM and > 10 µM; in the experiment on K-562 leukemia, over 100 µM.
Consider `Cc1c(N2CCCC2)cc2c(c1NC(=O)c1ccccc1Cl)C(C)(C)CC2(C)C`, for which the TGI in the experiment on M14 melanoma came to 26.8 µM; in the experiment with SF-539 CNS, 39.7 µM; with UACC-257 melanoma it was 24.1 µM; in the experiment on NCI-H23 lung, 28.5 µM; in the experiment with SK-MEL-2 melanoma, 30 µM; with LOX IMVI melanoma, 27.4 µM. The TGI in the experiment with PC-3 prostate was 29.9 µM; in the experiment on BT-549 breast, 32 µM; in the experiment on K-562 leukemia, over 100 µM.
As for `CC12CCC3C(CCC4Cc5[nH]c6ccccc6c5CC43C)C1CCC2O` (centres undefined), the GI50 in the experiment on M14 melanoma was 0.753 µM; in the experiment on HL-60(TB) leukemia, 0.381 µM; in the experiment on SF-539 CNS, 1.2 µM; with UACC-257 melanoma it was over 100 µM; in the experiment on NCI-H23 lung, 1.81 µM; with SK-MEL-2 melanoma, 4.28 µM. Besides, the figures for the GI50 in the experiment with LOX IMVI melanoma, in the experiment with PC-3 prostate and in the experiment with BT-549 breast were 1.01 µM, 3.13 µM and 2.65 µM, respectively. Moreover, the TGI in the experiment on M14 melanoma was over 19.8 µM; in the experiment with HL-60(TB) leukemia, 2.33 µM; in the experiment on SF-539 CNS, 3.77 µM; in the experiment with UACC-257 melanoma, over 100 µM; with NCI-H23 lung, over 24.8 µM; in the experiment on SK-MEL-2 melanoma, over 100 µM. The TGI in the experiment on LOX IMVI melanoma is 7.13 µM; in the experiment with PC-3 prostate it was over 100 µM; in the experiment with BT-549 breast, over 100 µM.
Turning to `CC(C)[C@]12O[C@H]1[C@@H]1O[C@]13[C@]1(O[C@H]1C[C@H]1C4=C(CC[C@@]13C)C(=O)OC4)[C@@H]2O`, the GI50 in the experiment with M14 melanoma was 0.0158 µM; in the experiment with HL-60(TB) leukemia, under 0.0111 µM; with SF-539 CNS, 0.0146 µM; in the experiment with UACC-257 melanoma it was 0.0101 µM and 0.0148 µM; in the experiment on SK-MEL-2 melanoma, 0.0157 µM; with LOX IMVI melanoma, under 0.01 µM. Further, the GI50 is 0.0214 µM and < 0.013 µM in the experiment with BT-549 breast; 0.0151 µM in the experiment on K-562 leukemia. In addition, the TGI in the experiment with M14 melanoma was 0.0312 µM and 0.0361 µM; in the experiment with HL-60(TB) leukemia, 0.0495 µM; with SF-539 CNS, 0.026 µM and 0.0358 µM; in the experiment on UACC-257 melanoma, 0.0341 µM and 0.0476 µM; with NCI-H23 lung it was 0.0156 µM; in the experiment on SK-MEL-2 melanoma, 0.0195 µM and 0.0323 µM. In addition, the TGI with LOX IMVI melanoma was 0.0251 µM; in the experiment with BT-549 breast it was 0.178 µM and 0.0347 µM; with K-562 leukemia, over 100 µM.
On to `CN(Cc1cnc2nc(N)nc(N)c2n1)c1ccc(C(=O)NC(CCC(=O)O)C(=O)O)cc1C(F)(F)F` (centres undefined), for which the TGI in the experiment with M14 melanoma, in the experiment with HL-60(TB) leukemia, with SF-539 CNS, in the experiment with UACC-257 melanoma, in the experiment on NCI-H23 lung and in the experiment with SK-MEL-2 melanoma was over 100 µM each time. The TGI with LOX IMVI melanoma, with PC-3 prostate and in the experiment on K-562 leukemia was over 100 µM each time.
As for `N=C(N)c1ccc(OCc2cccc(COc3ccc(C(=N)N)cc3)c2)cc1`, the GI50 is 2.83 µM with M14 melanoma; 1.92 µM in the experiment on SF-539 CNS; 14.4 µM in the experiment on UACC-257 melanoma; 8.59 µM in the experiment on NCI-H23 lung; 24.2 µM in the experiment on SK-MEL-2 melanoma; 12.4 µM with PC-3 prostate. Besides, the GI50 is 3.41 µM in the experiment with BT-549 breast and 3.62 µM with K-562 leukemia. In addition, the TGI is 7.35 µM in the experiment with M14 melanoma; 5.1 µM in the experiment with SF-539 CNS; 84.8 µM in the experiment on UACC-257 melanoma; 27.9 µM in the experiment with NCI-H23 lung; over 100 µM in the experiment on SK-MEL-2 melanoma; 25.8 µM in the experiment on PC-3 prostate. The TGI in the experiment on BT-549 breast came to 9.37 µM; with K-562 leukemia, 19 µM.
Take `CCCCCCCCCCCCNC(C)=O`: the TGI in the experiment with M14 melanoma is 32.6 µM; with SF-539 CNS it was 29.9 µM; in the experiment on UACC-257 melanoma it was 63.9 µM; with NCI-H23 lung, 29.9 µM; with SK-MEL-2 melanoma, 28.1 µM; with LOX IMVI melanoma it was 23.1 µM. Further, the results for the TGI with PC-3 prostate and with BT-549 breast were 28.4 µM and 30.8 µM, respectively.
Take `Cc1nc(-c2cccc(Nc3nc(-c4ccc(Cl)cc4)cs3)c2)cs1`: the GI50 with M14 melanoma was 9.72 µM; in the experiment on HL-60(TB) leukemia it was 19.8 µM; in the experiment with UACC-257 melanoma, 8.76 µM; in the experiment on NCI-H23 lung, 1.27 µM; in the experiment with SK-MEL-2 melanoma, 8.82 µM; in the experiment with LOX IMVI melanoma it was 7.3 µM. The GI50 with PC-3 prostate is 8.96 µM; with BT-549 breast, 10.7 µM; with K-562 leukemia, 8.06 µM. In addition, the TGI is 19.6 µM in the experiment with M14 melanoma; over 50 µM in the experiment with HL-60(TB) leukemia; 18.1 µM with UACC-257 melanoma; 10.9 µM in the experiment on NCI-H23 lung; 18.9 µM in the experiment on SK-MEL-2 melanoma; 13.9 µM in the experiment on LOX IMVI melanoma. Besides, the TGI amounted to 21.2 µM in the experiment on PC-3 prostate, 21.6 µM with BT-549 breast and 21.4 µM in the experiment with K-562 leukemia.
